According to US10365268B2, “Methods for identifying modulators of membrane potentials in bipolar disorder and attention deficit hyperactivity disorder” (PsychNostics, LLC, priority 2011, dated 2019):
“Also recorded” adds a separate entry of the source.

Columns and labels:
RBC = test: membrane potential ratio (MPR) test: agent added to K+-free, EtOH-containing test buffer versus reference buffer; type: cell-based, human; conditions: for EtOH effect (hSK4 opening / hyperpolarization): hSK4 blockers added to the test buffer
Text: It is essential to understand these differences so that the underlying pathophysiology of these disorders is better understood leading to better diagnostic markers and drug targets. […] Membrane potential ratio (MPR™) is the ratio between the membrane potential in the test buffer and that in the reference buffer. The reference buffer contains NaCl, CaCl2, glucose and Hepes whereas the test buffer contains ethyl alcohol (EtOH) in addition to these compounds. […] The role of the absence of K^+ ions in the buffer on membrane potential and the addition of EtOH needs to be understood in order to explain their effects.
The assay uses a reference buffer or regular buffer and a test buffer. The “reference buffer” or “regular buffer” contains only Na^+, Ca^2+, and HEPES without any other reagents. The “test buffer” containing no potassium (K^+-free buffer) is a HEPES buffer without potassium (4 mM NaHCO3, 5 mM HEPES, 134 mM NaCl, 2.3 mM CaCl2, and 5 mM glucose) and with a K^+ channel altering agent, at a pH of 6.8 (range of 6.6 to 7.0). The test buffer may also contain 30 μM ethacrynic acid dissolved in EtOH as solvent.
In order to verify the CAK channel is involved in the membrane potential of the RBC used for the membrane potential ratios (MPR™) tests, the CAK channel blockers, quinine and clotrimazole were added to the test buffer and the membrane potential ratios (MPR™) was determined. The membrane potential ratios (MPR™) values are shown in box plots. […] Similarly boxes 3, 4 and 5 show the results for clotrimazole (CLTX). Box 3 represents no CLTX, while box 4 for 2.5 micro molar CLTX and box 5 for 5 micro molar concentrations in the test buffer.
Blood samples from a patient were suspended in a reference buffer (reference buffer sample) as well as in a test buffer (test buffer sample) with 3,3′-dihexyloxacarbocyanine iodide (DiOC6) dye, incubated, spun, drained and the […] resuspended in their respective buffers without the dye. The resuspended buffer samples were then distributed in three separate 96 well plates and tested in a Plate Reader for fluorescence intensity. The Plate Reader recorded a data matrix of each of the 96 well plates and the data matrix was transferred to a Template to calculate the ratio between the test buffer sample and the corresponding reference buffer sample. The resulting ratios were calculated to determine the mean value, the standard deviation and the coefficient of variation. This procedure was repeated two more times and the resulting mean value, standard deviation and the coefficient of variation calculated in the same manner. The Membrane Potential Ratio (MPR™) obtained from the mean values was 0.781 (with a standard deviation of 0.014 and coefficient of variation of 1.76). Based on the MPR™ value of 0.781, the patient was diagnosed to have ADHD (with a greater than 97% probability).

diacylglycerol kinase = conditions: human red blood cell membranes; de Courcelles et al. 1985; cited from earlier work
[1] = system: calmodulin-dependent protein kinase II (CaM-kinase II); conditions: Ishida et al. 1995; cited from earlier work
[2] = CAK channel blockers added to the test buffer (quinine 1 mM; CLTX 2.5 and 5 micro molar), FIG. 2

Question: Which “effect on membrane potentials” value (RBC; three concentrations (250 nM, 500 nM and 750 nM) in the test buffer, FIG. 5) does the source give for `CN[C@@H]1C[C@H]2O[C@@](C)([C@@H]1OC)n1c3ccccc3c3c4c(c5c6ccccc6n2c5c31)C(=O)NC4` [Staurosporine, staurosporine] here?
Answer: hyperpolarizes the membrane potentials very effectively

Question: And the “effect on membrane potentials” value (RBC; three concentrations (250 nM, 500 nM and 750 nM) in the test buffer, FIG. 5, listed as staurosporine)?
Answer: hyperpolarizes the membrane potential in a concentration dependent manner

Question: Which “effect on membrane potential ratio (MPR) / cell polarization” value (RBC; 2.5 μM in the test buffer versus without PMA, FIG. 4) does the source give for `CCCCCCCCCCCCCC(=O)O[C@@H]1[C@@H](C)[C@@]2(O)[C@@H](C=C(CO)C[C@]3(O)C(=O)C(C)=C[C@@H]23)[C@@H]2C(C)(C)[C@]12OC(C)=O` [PMA, phorbol 12-myristate 13-acetate] here?
Answer: depolarizes the cells very effectively

Question: With `Cc1nc2sccn2c(=O)c1CCN1CCC(=C(c2ccccc2)c2ccc(F)cc2)CC1` [ALX, 6-[2-[4-[(4-fluorophenyl)phenylmethylene]-1-piperidinyl]ethyl]-7-methyl-5H-thiazolo[3,2-a]pyrimidin-5-one] as the compound, how does the “effect on membrane potential” value (RBC; three concentrations 2.5 μl, 5 μl and 7.5 μl, FIG. 7) read?
Answer: depolarizes the membrane potential

Question: And the “inhibition of diacylglycerol kinase” value (diacylglycerol kinase)?
Answer: found to inhibit diacylglycerol kinase

Question: Which “effect on membrane potentials” value (RBC; [2]) does the source give for `Clc1ccccc1C(c1ccccc1)(c1ccccc1)n1ccnc1` [clotrimazole] here?
Answer: depolarized the membrane potentials robustly

Question: What about the “EtOH effect (hSK4 opening / hyperpolarization)” value (RBC; FIG. 2) of the same compound?
Answer: blocked

Question: With `Nc1ncnc2c1nc(Sc1ccc(Cl)cc1)n2[C@@H]1O[C@@H]2COP(=O)(O)O[C@H]2[C@H]1O` [8-CPT, 8-CPT-cAMP] as the compound, how does the “effect on membrane potential ratio (MPR) / membrane potentials” value (RBC; 50 μM in the test buffer, FIG. 3) read?
Answer: did not have any effect; also recorded: no effect

Question: For `C=C[C@H]1C[N@@]2CC[C@H]1C[C@H]2[C@H](O)c1ccnc2ccc(OC)cc12` [quinine], which “membrane potential ratio (MPR) values” (RBC; 1 mM quinine in the test buffer compared to test buffer without quinine, FIG. 2) is on record?
Answer: increased

Question: And the “effect on membrane potentials” value (RBC; [2])?
Answer: depolarized the membrane potentials robustly

Question: What about the “EtOH effect (hSK4 opening / hyperpolarization)” value (RBC; FIG. 2) of the same compound?
Answer: blocked

Question: Which results are given for “autocamtide-2-related inhibitory peptide [AIP]”?
Answer: inhibition of CaM-kinase II [1]: highly specific and potent inhibitor; effect on membrane potential (RBC; 5 μM concentration, FIG. 6): depolarizes the membrane potential robustly
